Test results taken from patent US12077503B2, “Substituted cyclic amides and their use as herbicides” (FMC CORPORATION, priority 2015, dated 2024).

What was measured:
Type in all cases: in vivo
[1] = system: redroot pigweed (Amaranthus retroflexus); assay: Test G Post-Emergence Protocol
Description: (§1) Seeds of corn (Zea mays), giant foxtail (Setaria faberi), barnyardgrass (Echinochloa crus-galli), ivy-leaved morning glory (Ipomoea hederacea), redroot pigweed (Amaranthus retroflexus) and velvetleaf (Abutilon theophrasti) were sown in standard soil in pots. After cultivation for 8 days under controlled conditions in a glasshouse (at 24/16° C., day/night; 14 hours light; 65% humidity), the plants were sprayed with an aqueous spray solution derived from the formulation of the technical active ingredient in acetone/water (50:50) solution containing 0.5% Tween 20 (polyoxyethylene sorbitan monolaurate, CAS RN 9005-64-5) to give a final dose of 15.625, 62.5 or 250 g/ha of test compound.
(§2) The test plants were then grown on under controlled conditions in a glasshouse (at 24/16° C., day/night; 14 hours light; 65% humidity) and watered twice daily. After 13 days the test was evaluated (100=total damage to plant; 0=no damage to plant). A dash (-) means no test result.

corn (Zea mays) [2] = assay: Test G Post-Emergence Protocol
Description: as §1, §2

[3] = system: velvetleaf (Abutilon theophrasti); assay: Test G Post-Emergence Protocol
Description: as §1, §2

[4] = system: giant foxtail (Setaria faberi); assay: Test G Post-Emergence Protocol
Description: as §1, §2

[5] = system: barnyardgrass (Echinochloa crus-galli); assay: Test G Post-Emergence Protocol
Description: as §1, §2

[6] = system: ivy-leaved morning glory (Ipomoea hederacea); assay: Test G Post-Emergence Protocol
Description: as §1, §2

[7] = system: redroot pigweed (Amaranthus retroflexus); assay: Test G Pre-Emergence Protocol; conditions: evaluated after 13 days
Description: as §1, with “one day” for “8 days”
as §2

corn (Zea mays) [8] = assay: Test G Pre-Emergence Protocol; conditions: evaluated after 13 days
Description: as §1, with “one day” for “8 days”
as §2

[9] = system: velvetleaf (Abutilon theophrasti); assay: Test G Pre-Emergence Protocol; conditions: evaluated after 13 days
Description: as §1, with “one day” for “8 days”
as §2

[10] = system: giant foxtail (Setaria faberi); assay: Test G Pre-Emergence Protocol; conditions: evaluated after 13 days
Description: as §1, with “one day” for “8 days”
as §2

[11] = system: barnyardgrass (Echinochloa crus-galli); assay: Test G Pre-Emergence Protocol; conditions: evaluated after 13 days
Description: as §1, with “one day” for “8 days”
as §2

[12] = system: ivy-leaved morning glory (Ipomoea hederacea); assay: Test G Pre-Emergence Protocol; conditions: evaluated after 13 days
Description: as §1, with “one day” for “8 days”
as §2

[13] = 15.625 g ai/ha, evaluated after 13 days (100=total damage to plant; 0=no damage to plant)
[14] = 62.5 g ai/ha, evaluated after 13 days
[15] = 250 g ai/ha, evaluated after 13 days
[16] = 62.5 g ai/ha, 100=total damage to plant, 0=no damage to plant
[17] = 62.5 g ai/ha, evaluated after 13 days, 100=total damage to plant, 0=no damage to plant
[18] = 250 g ai/ha, evaluated after 13 days, 100=total damage to plant, 0=no damage to plant

Row | Structure (SMILES) | Pigweed, Redroot damage rating [1, 13] | Pigweed, Redroot damage rating (100=total damage to plant; 0=no damage to plant) [1, 14] | damage to plant, Pigweed, Redroot (100=total damage to plant; 0=no damage to plant) [1, 15] | Corn damage rating (corn (Zea mays) [2]; [13]) | Corn damage rating (100=total damage to plant; 0=no damage to plant) (corn (Zea mays) [2]; [14]) | Velvetleaf damage rating [3, 13] | Foxtail, Giant damage rating [4, 13] | Barnyardgrass damage rating [5, 13] | Morningglory, Ivy-leaved damage rating [6, 13] | Pigweed, Redroot damage rating (100=total damage to plant; 0=no damage to plant) ([7]; 15.625 g ai/ha) | Pigweed, Redroot damage rating (100=total damage to plant; 0=no damage to plant) ([7]; 250 g ai/ha) | Corn damage rating (100=total damage to plant; 0=no damage to plant) (corn (Zea mays) [8]; 15.625 g ai/ha) | Corn damage rating (100=total damage to plant; 0=no damage to plant) (corn (Zea mays) [8]; 250 g ai/ha) | Velvetleaf damage rating (100=total damage to plant; 0=no damage to plant) ([9]; 15.625 g ai/ha) | Velvetleaf damage rating (100=total damage to plant; 0=no damage to plant) ([9]; 250 g ai/ha) | Foxtail, Giant damage rating (100=total damage to plant; 0=no damage to plant) ([10]; 15.625 g ai/ha) | Foxtail, Giant damage rating (100=total damage to plant; 0=no damage to plant) ([10]; 250 g ai/ha) | Barnyardgrass damage rating (100=total damage to plant; 0=no damage to plant) ([11]; 15.625 g ai/ha) | Barnyardgrass damage rating (100=total damage to plant; 0=no damage to plant) ([11]; 250 g ai/ha) | Morningglory, Ivy-leaved damage rating (100=total damage to plant; 0=no damage to plant) ([12]; 250 g ai/ha) | also measured
1 | CN1CC(c2ccc(C(F)(F)F)cc2)C(C(=O)Nc2cccc(Cl)c2[N+](=O)[O-])C1=O (racemic) [Compound 1639] | 0 | 20 | 60 | 0 | 0 | 0 | 30 | 10 | 0 | 0 | 30 | 0 | 0 | 0 | 0 | 30 | 80 | 0 | 30 | 0 | damage to plant, Corn (100=total damage to plant; 0=no damage to plant) (corn (Zea mays) [2]; [15]): 10; Velvetleaf damage rating (100=total damage to plant; 0=no damage to plant) [3, 14]: 0; damage to plant, Velvetleaf (100=total damage to plant; 0=no damage to plant) [3, 15]: 20; Foxtail, Giant damage rating (100=total damage to plant; 0=no damage to plant) [4, 14]: 70; damage to plant, Foxtail, Giant (100=total damage to plant; 0=no damage to plant) [4, 15]: 80; Barnyardgrass damage rating (100=total damage to plant; 0=no damage to plant) [5, 14]: 30; damage to plant, Barnyardgrass (100=total damage to plant; 0=no damage to plant) [5, 15]: 60; Morningglory, Ivy-leaved damage rating (100=total damage to plant; 0=no damage to plant) [6, 14]: 10; damage to plant, Morningglory, Ivy-leaved (100=total damage to plant; 0=no damage to plant) [6, 15]: 20; plant damage rating, Pigweed, Redroot [7, 16]: 20; plant damage rating, Corn (corn (Zea mays) [8]; [16]): 0; plant damage rating, Velvetleaf [9, 16]: 0; plant damage rating, Foxtail, Giant [10, 16]: 60; plant damage rating, Barnyardgrass [11, 16]: 10; Morning-glory, Ivy-leaved damage rating (100=total damage to plant; 0=no damage to plant) ([12]; 15.625 g ai/ha): 0; plant damage rating, Morningglory, Ivy-leaved [12, 16]: 0
2 | Cc1cccc(NC(=O)[C@H]2C(=O)N(C)C[C@@H]2c2ccc(C(F)(F)F)cc2)c1S(C)(=O)=O (racemic) [Compound 1677] | 0 | – | – | 0 | – | 0 | 10 | 0 | 0 | 0 | 0 | 0 | 0 | 0 | 0 | 10 | 70 | 0 | 10 | 0 | Pigweed, Redroot damage rating [1, 17]: 0; Pigweed, Redroot damage rating [1, 18]: 0; Corn damage rating (corn (Zea mays) [2]; [17]): 0; Corn damage rating (corn (Zea mays) [2]; [18]): 0; Velvetleaf damage rating [3, 17]: 0; Velvetleaf damage rating [3, 18]: 0; Foxtail, Giant damage rating [4, 17]: 30; Foxtail, Giant damage rating [4, 18]: 50; Barnyardgrass damage rating [5, 17]: 10; Barnyardgrass damage rating [5, 18]: 10; Morningglory, Ivy-leaved damage rating [6, 17]: 0; Morningglory, Ivy-leaved damage rating [6, 18]: 0; Pigweed, Redroot damage rating [7, 16]: 0; Corn damage rating (corn (Zea mays) [8]; [16]): 0; Velvetleaf damage rating [9, 16]: 0; Foxtail, Giant damage rating [10, 16]: 40; Barnyardgrass damage rating [11, 16]: 0; Morningglory, Ivy-leaved damage rating (100=total damage to plant; 0=no damage to plant) ([12]; 15.625 g ai/ha): 0; Morningglory, Ivy-leaved damage rating [12, 16]: 0
3 | Cc1nc(Cl)ccc1[C@@H]1CN(C)C(=O)[C@H]1C(=O)Nc1cccc(F)c1F [Compound 1463] | 0 | 10 | 10 | 0 | 10 | 0 | 0 | 0 | 0 | 0 | 0 | 0 | 0 | 0 | 0 | 0 | 90 | 10 | 90 | 0 | damage to plant, Corn (100=total damage to plant; 0=no damage to plant) (corn (Zea mays) [2]; [15]): 10; Velvetleaf damage rating (100=total damage to plant; 0=no damage to plant) [3, 14]: 10; damage to plant, Velvetleaf (100=total damage to plant; 0=no damage to plant) [3, 15]: 20; Foxtail, Giant damage rating (100=total damage to plant; 0=no damage to plant) [4, 14]: 0; damage to plant, Foxtail, Giant (100=total damage to plant; 0=no damage to plant) [4, 15]: 70; Barnyardgrass damage rating (100=total damage to plant; 0=no damage to plant) [5, 14]: 0; damage to plant, Barnyardgrass (100=total damage to plant; 0=no damage to plant) [5, 15]: 30; Morningglory, Ivy-leaved damage rating (100=total damage to plant; 0=no damage to plant) [6, 14]: 0; damage to plant, Morningglory, Ivy-leaved (100=total damage to plant; 0=no damage to plant) [6, 15]: 20; plant damage rating, Pigweed, Redroot [7, 16]: 0; plant damage rating, Corn (corn (Zea mays) [8]; [16]): 0; plant damage rating, Velvetleaf [9, 16]: 0; plant damage rating, Foxtail, Giant [10, 16]: 70; plant damage rating, Barnyardgrass [11, 16]: 50; Morning-glory, Ivy-leaved damage rating (100=total damage to plant; 0=no damage to plant) ([12]; 15.625 g ai/ha): 0; plant damage rating, Morningglory, Ivy-leaved [12, 16]: 0
